Experimental data published in patent US20050175550A1, “Compositions for oral use” (priority 2000, published 2005).

What was measured:
Format in all cases: cell-based
[1] = test system: Streptococcus sobrinus MT8246; assay: Minimum growth-inhibiting concentration on agar media (Example 2); conditions: S. sobrinus MT8246; Brain Heart Infusion, 5% CO2
Experimental: (§1) 3 ml of GAM broth (Nissui Medical) containing 5 μg/ml of hemin and 1 μg/ml of menadione was separately inoculated with one platinum loop each of subcultures of causative bacteria of periodontal disease, strains Porphyromonas gingivalis W83, W50, ATCC49417 and ATCC33277, strain Actinobacillus actinomycetemcomitans Y4, and strains Fusobacterium nucleatum ATCC10953 and ATCC25586, followed by incubation at 37° C. under anaerobic conditions (10% CO2, 10% H2 and 80% N2) overnight. Then, the resulting cultures were diluted to 10^−8, 10^−6, 10^−4 and 10^−3 to make inoculating bacterial solutions, respectively.
(§2) Agar media containing 400, 200, 100, 50, 25, 10 and 5 μg/ml of TFM, respectively, were prepared and streaked, about 2 cm long, with a platinum loop each of the above-prepared inoculating bacterial solutions, followed by incubation under the same anaerobic conditions as above at 37° C. for 48-72 hours to evaluate growth of the bacteria.
(§3) Streptococcus sobrinus MT8246, Streptococcus sanuis ST160, Streptococcus mutans Xc and Streptococcus salivarius HHT were likewise incubated in Brain Heart Infusion (Difco) in the same manner as above except that the incubation was conducted in the presence of 5% CO2 to evaluate the growth.

Streptococcus mutans Xc = assay: as above; conditions: S. mutans Xc; Brain Heart Infusion, 5% CO2
Experimental: as §1, §2, §3

[2] = test system: Streptococcus salivarius HHT; assay: as above; conditions: S. salivarius HHT; Brain Heart Infusion, 5% CO2
Experimental: as §1, §2, §3

S. sanguis ST160 = assay: as above; conditions: Brain Heart Infusion, 5% CO2
Experimental: as §1, §2, §3

[3] = test system: Staphylococcus epidermidis ATCC12228; assay: MIC by agar plate dilution method on standard strains (Example 3)
Experimental: (§4) Minimum growth-inhibiting concentrations of trifluoromethionine and other antibacterial drugs on standard strains were determined by an agar plate dilution method according to the standard method of Japanese Society of Chemotherapy.
(§5) Drug solutions at a concentration 10 times as high as the maximum applicable concentration were prepared as original solutions of test drugs given in Table 2 (as to solvents used for this purpose, reference should be made also to Table 2). Serial two-fold dilution series of the original solutions were prepared at desired stages, and 1 ml each of the diluted drug solutions was added to 9 ml of media given in Table 3 to prepare drug plates. Concentration range of the individual drugs used are as follows: trifluoromethionine: 400-0.025 μg/ml (15 stages), tetracycline: 100-0.025 μg/ml (13 stages), and clarithromycin: 100-0.025 μg/ml (13 stages).
(§6) • 1) Bacterial solutions stocked at −80° C. were inoculated on agar media (as to media used, reference should be made to Table 3), and then incubated at 37° C. overnight. When desired, subculturing was conducted once more on the same agar media (by overnight incubation at 37° C.). • 2) Colonies growing on the agar media were sampled by a platinum loop, suspended in liquid media (reference should be made to Table 3) and statically incubated at 37° C. for 18 hours (preculturing). • 3) Preculturing was continued up to McFarland 0.5 (McFarland 0.5=about 10^8 CFU/ml), and then the culture broths were diluted with Muellar Hinton Broth to make 10^6 CFU/ml. 5 μl each of the diluted solutions were inoculated on the above-mentioned drug plates by an inoculator Microplanter.
(§7) Thus, bacterial solutions at about 10^8 CFU/ml can be easily prepared by use of McFarland 0.5. Bacterial solutions at such a turbidity are commercially available, but can be easily prepared. McFarland 0.5 can be obtained by adding 0.5 ml of an aqueous 0.048 mol/l barium chloride solution to 99.5 ml of 1% v/v (0.18 mol/l) sulfuric acid. • 4) The individual bacteria were incubated at 37° C. for 18-20 hours and then the growth was determined in the same manner as in Example 2 to obtain minimum growth-inhibiting concentrations.

[4] = test system: Staphylococcus epidermidis ATCC29886; assay: as above
Experimental: as §4, §5, §6, §7

[5] = test system: Fusobacterium nucleatum ATCC25586; assay: Minimum growth-inhibiting concentration on agar media (Example 2); conditions: F. nucleatuium ATCC 25586, anaerobic, 37° C., 48-72 hours
Experimental: as §1, §2

[6] = test system: Porphyromonas gingivalis W50; assay: as above; conditions: P. gingivalis W50, anaerobic, 37° C., 48-72 hours
Experimental: as §1, §2

[7] = test system: Porphyromonas gingivalis ATCC49417; assay: as above; conditions: P. gingivalis ATCC 49417, anaerobic, 37° C., 48-72 hours
Experimental: as §1, §2

[8] = test system: Fusobacterium nucleatum ATCC10953; assay: as above; conditions: F. nucleatuium ATCC 10953, anaerobic, 37° C., 48-72 hours
Experimental: as §1, §2

[9] = test system: Actinobacillus actinomycetemcomitans Y4; assay: as above; conditions: A. actinomycetemcomitans Y4, anaerobic, 37° C., 48-72 hours
Experimental: as §1, §2

[10] = test system: Porphyromonas gingivalis W83; assay: as above; conditions: P. gingivalis W83, anaerobic, 37° C., 48-72 hours
Experimental: as §1, §2

[11] = test system: Porphyromonas gingivalis ATCC33277; assay: as above; conditions: P. gingivalis ATCC 33277, anaerobic, 37° C., 48-72 hours
Experimental: as §1, §2

[12] = test system: Actinobacillus actinomycetemcomitans Y4; assay: Antibacterial test, propagation by turbidity in broth (Example 1); conditions: medium containing 0.1 mM or 1.0 mM trifluoromethionine, FIG. 5

For `N[C@@H](CCSC(F)(F)F)C(=O)O` [TFM, Trifluoromethionine], the Minimum growth-inhibiting concentration [1] was greater than 400 µg/mL, the Minimum growth-inhibiting concentration (Streptococcus mutans Xc) was greater than 400 µg/mL and the Minimum growth-inhibiting concentration [2] was greater than 400 µg/mL. For the same compound, the Minimum growth-inhibiting concentration (S. sanguis ST160) was greater than 400 µg/mL, the MIC [3] was greater than 400 µg/mL and the MIC [4] was greater than 400 µg/mL. For the same compound, the Minimum growth-inhibiting concentration [5] was 25 µg/mL, the Minimum growth-inhibiting concentration [6] was 5 µg/mL and the Minimum growth-inhibiting concentration [7] was 5 µg/mL. It also gave a Minimum growth-inhibiting concentration [8] of 25 µg/mL, a Minimum growth-inhibiting concentration [9] of 10 µg/mL and a Minimum growth-inhibiting concentration [10] of 5 µg/mL. The Minimum growth-inhibiting concentration [11] was 5 µg/mL and the “antibacterial effect (propagation of bacteria, absorbance at 550 nm)” value [12] was “remarkable antibacterial effects”.
